Source: article PMC8780964, “Evaluation of the Pharmacokinetics of the Pancreastatin Inhibitor PSTi8 Peptide in Rats: Integration of In Vitro and In Vivo Findings” (Molecules, 2022)
Entries after “also recorded” stand apart in the source; their conditions may differ. Read-outs that look alike come from different tables or passages of the source. Ends that are not written are not given here.

How the values were obtained:
[1] = Microsomal metabolic stability study; type: in vitro ADME, SD rats; settings: 5 µM
Procedure: RLM was prepared from SD rats from our lab, as previously reported. In vitro metabolic stability of PSTi8 was determined using RLM. The reaction milieu was prepared by adding 50 mM Tris buffer (pH 7.4), 40 mM MgCl2 pre-incubated at 37 °C along with RLM (0.5 mg/mL) and spiked at a concentration (5 µM) of PSTi8. The reaction was started with NADPH (1 mM) and without NADPH (negative control using Tris buffer). A total of 100 µL samples were collected at 0, 5, 15, 30, 45 and 60 min, and the reaction was quenched with liquid nitrogen. Samples were processed with the SPE procedure and analyzed using the LC-MS/MS method. Negative control was used to assess the peptide stability in the reaction milieu and the positive control (Testosterone, 25 µM) was incubated to obtain the microsomal activity.

[2] = Stability in rat plasma in different storage conditions (bioanalytical validation); type: in vitro ADME
Procedure: A QTRAP-4000 AB Sciex (SCIEX, Concord, ON, Canada) mass spectrometer using an electrospray ionization source tandem with the Shimadzu UFLC system was utilized for the quantitative analysis. Quantification was performed for PSTi8 and IS with positive ionization mode, using prominent selected reaction monitoring transitions as 607.80/771.20 and 342.20/229.10 m/z, respectively. The chromatographic separation of PSTi8 and IS was accomplished on a Phenomenex Aqua 5µ 125A (250 × 4.6 mm) column using an isocratic mode of mobile phase (methanol:0.1 % formic acid, 50:50 % v/v) with 0.4 mL/min flow rate. The analysis run time was 10 min and the injection volume was 10 μL for each sample. Analyst 1.6 software was used to regulate the LC-MS/MS instrument and for data quantification. The plasma sample extraction involved the SPE procedure using MAX cartridges, as previously described. The LC-MS/MS bioanalytical assay of PSTi8 peptide was validated in rat plasma as per the USFDA bioanalytical method validation guidance. The bioanalytical method development and validation of PSTi8 in mice plasma was recently reported. The bioanalytical validation and stability studies were conducted in rat plasma, as described earlier.

[3] = parameters: method as in PMID 31891874; settings: i.p., mice; cited from earlier work
in vivo [4] = settings: male, SD, rat, 5 mg/kg
Procedure: (§1) Rats were distributed into three groups and each group contained 6 animals.
(§2) After dosing in rats, blood (250 µL) samples were collected in EDTA containing microcentrifuge tubes at 0.08, 0.16, 0.33, 0.50, 0.75, 1, 2, 3, 4, 5 and 6 h time points. Plasma was separated from the blood after centrifugation and kept in a −80 °C freezer for LC-MS/MS analysis.
(§3) The i.p. and s.c. PK were best described by a one-compartment first-order PK model without lag time. The i.v. PK was well explained by a one-compartment model with a bolus input and first-order elimination rate. The PK parameters include the elimination constant (K10), absorption constant (K01), Tmax, elimination half-life (K10-HL), absorption half-life (K01-HL), Cmax, AUC (stands for model derived AUC0-∞), CL/F, mean residence time (MRT) and Vd/F. The bioavailability of PSTi8 was determined using the ratio between the AUC from i.p. or s.c. and i.v. routes, after normalizing the dose.

in vivo [5] = settings: male, SD, rat, ip
Procedure: (§4) Male SD rats were utilized in this study and distributed into two groups (each group contained 6 animals). To each group, PSTi8 was administered i.p. at a dose of 10 and 20 mg/kg in rats.
as §2
(§5) The PK parameters of PSTi8 were estimated with a one-compartmental PK model in Phoenix WinNonlin. […] The PK parameters include the elimination constant (K10), absorption constant (K01), Tmax, elimination half-life (K10-HL), absorption half-life (K01-HL), Cmax, AUC (stands for model derived AUC0-∞), CL/F, mean residence time (MRT) and Vd/F. The bioavailability of PSTi8 was determined using the ratio between the AUC from i.p. or s.c. and i.v. routes, after normalizing the dose.

C57Bl/6 mice = settings: mouse, in vivo; cited from earlier work
[6] = Blood–plasma partitioning study (KRBC/PL)
Procedure: Fresh blood was collected from SD rats and used for the blood–plasma partitioning study. The blood was pre-incubated in a shaking water bath for 10 min at 37 ± 0.5 °C. […] During the study, the fresh rat plasma was separated from the same batch of whole blood. During the incubation time course, 250 µL aliquots of incubated whole blood samples were collected at different time points (0, 15, 30 and 60 min) and centrifuged at 10,000 g for 5 min at RT to obtain the plasma. At each time point, 100 µL aliquot of the reference plasma sample was collected. Both, 100 µL aliquot of generated plasma and reference plasma were processed and analyzed using the LC-MS/MS method. For the determination of hematocrit (Hc), heparinized whole blood (1.0 mL) was taken in a hematocrit tube and centrifuged at 2000 g for 30 min. The Hc for the whole blood was calculated by using Equation (2) [21, 22].

[7] = Dose proportionality PK study, i.p., male SD rats; settings: for AUC(0-inf) / Cmax / Tmax / half-life: male, SD, rat, plasma, ip
Procedure: as §4, §2, §5

[8] = Gender difference PK study, i.v. and i.p., female SD rats
Procedure: Female SD rats were utilized and distributed into two groups (each group contained 6 animals). To each group, a 5 mg/kg dose of PSTi8 was administered i.v. and i.p. for PK determination.
as §2
The PK parameters of PSTi8 were estimated with a one-compartmental PK model in Phoenix WinNonlin. The i.p. and s.c. PK were best described by a one-compartment first-order PK model without lag time. The i.v. PK was well explained by a one-compartment model with a bolus input and first-order elimination rate. The PK parameters include the elimination constant (K10), absorption constant (K01), Tmax, elimination half-life (K10-HL), absorption half-life (K01-HL), Cmax, AUC (stands for model derived AUC0-∞), CL/F, mean residence time (MRT) and Vd/F. The bioavailability of PSTi8 was determined using the ratio between the AUC from i.p. or s.c. and i.v. routes, after normalizing the dose.

[9] = PK and bioavailability after i.v., i.p. and s.c. administration in male SD rats; settings: for K01 (absorption constant) / K10 (elimination constant) / half-life: male SD rats
Procedure: as §1, §2, §3

[10] = female, SD, rat, plasma, ip, 5 mg/kg
[11] = female, SD, rat, plasma, iv, 5 mg/kg
[12] = male, SD, rat, plasma, ip, 5 mg/kg
[13] = male, SD, rat, plasma, iv, 5 mg/kg
[14] = male, SD, rat, plasma, sc, 5 mg/kg

In the case of PEGKGEQEHSQQKEEEEEMAV-NH2 [PSTi8], the “stability in rat liver microsomes (in words)” value ([1]; RLM 0.5 mg/mL, NADPH 1 mM) is reported as “stable; also recorded: high stability”, the “degradation in negative control experiment” value ([1]; RLM, without NADPH) is reported as “no degradation” and the “Accuracy (%) of stability sample” value ([2]; 0 h (for all), nominal 30 ng/mL) is reported as 102.34%. For the same substance, the “Accuracy (%) of stability sample” value ([2]; 0 h (for all), nominal 400 ng/mL) was 101.56%, the “Accuracy (%) of stability sample” value ([2]; 0 h (for all), nominal 800 ng/mL) was 101.70% and the “Accuracy (%) of stability sample” value ([2]; Autosampler (4 °C, 12 h), nominal 30 ng/mL) was 112.60%. The “Accuracy (%) of stability sample” value ([2]; Autosampler (4 °C, 12 h), nominal 400 ng/mL) was 94.13%, the “Accuracy (%) of stability sample” value ([2]; Autosampler (4 °C, 12 h), nominal 800 ng/mL) was 99.90% and the “Accuracy (%) of stability sample” value ([2]; Bench-top (2 h), nominal 30 ng/mL) was 96.27%. For the same substance, the “Accuracy (%) of stability sample” value ([2]; Bench-top (2 h), nominal 400 ng/mL) was 96.17%, the “Accuracy (%) of stability sample” value ([2]; Bench-top (2 h), nominal 800 ng/mL) was 106.70% and the “Accuracy (%) of stability sample” value ([2]; Bench-top (6 h), nominal 30 ng/mL) was 103.47%. The “Accuracy (%) of stability sample” value ([2]; Bench-top (6 h), nominal 400 ng/mL) was 93.00%, the “Accuracy (%) of stability sample” value ([2]; Bench-top (6 h), nominal 800 ng/mL) was 97.97% and the “Accuracy (%) of stability sample” value ([2]; Long term (-80°C, 30 days), nominal 30 ng/mL) was 110.13%. The “Accuracy (%) of stability sample” value ([2]; Long term (-80°C, 30 days), nominal 400 ng/mL) was 102.87%, the “Accuracy (%) of stability sample” value ([2]; Long term (-80°C, 30 days), nominal 800 ng/mL) was 108.03% and the “Accuracy (%) of stability sample” value ([2]; Three freeze-thaw cycles, nominal 30 ng/mL) was 101.30%. For the same substance, the “Accuracy (%) of stability sample” value ([2]; Three freeze-thaw cycles, nominal 400 ng/mL) was 106.30%, the “Accuracy (%) of stability sample” value ([2]; Three freeze-thaw cycles, nominal 800 ng/mL) was 108.77% and the “stability in rat plasma with diverse storage conditions (in words)” value ([2]; storage conditions of Table S2) was “stable”. For the same substance, the bioavailability [3] was 52%, the CL/F (in vivo [4]; ip) was 10.3 mL/min/kg and the Vd/F (in vivo [4]; ip) was 0.39 ± 0.06 L/kg. The CL/F (in vivo [4]; sc) was 12.8 mL/min/kg, the Vd/F (in vivo [4]; sc) was 0.46 ± 0.09 L/kg and the CL/F (in vivo [5]; 10 mg/kg) was 5.17 mL/min/kg. It also gave a Vd/F (in vivo [5]; 10 mg/kg) of 0.26 ± 0.09 L/kg, a CL/F (in vivo [5]; 20 mg/kg) of 3.17 mL/min/kg and a Vd/F (in vivo [5]; 20 mg/kg) of 0.15 ± 0.03 L/kg. For the same substance, the toxicity finding (C57Bl/6 mice) was “safe and non-toxic”, the “RBC:plasma partition coefficient (KRBC/PL)” value ([6]; 0.206 µM, time not given) was 2.46 ± 0.44 and the “blood–plasma partitioning” value ([6]; summary in abstract) was greater than 2. The “K01 (absorption constant)” value ([7]; i.p. 10 mg/kg, male SD rats) was 4.89 ± 1.74 h⁻¹, the “K10 (elimination constant)” value ([7]; i.p. 10 mg/kg, male SD rats) was 1.33 ± 0.60 h⁻¹ and the “K01 (absorption constant)” value ([7]; i.p. 20 mg/kg, male SD rats) was 4.94 ± 0.97 h⁻¹. For the same substance, the “K10 (elimination constant)” value ([7]; i.p. 20 mg/kg, male SD rats) was 1.26 ± 0.18 h⁻¹, the “PK pattern in dose proportionality study” value ([7]; i.p. 10 and 20 mg/kg, male SD rats) was “non-linear PK; also recorded: non-linear pharmacokinetics” and the AUC(0-inf) ([7]; 10 mg/kg) was 32400 ng·h/mL. The Cmax ([7]; 10 mg/kg) was 24300 ng/mL, the Tmax ([7]; 10 mg/kg) was 22.8 min and the half-life ([7]; 10 mg/kg, K01-HL (absorption half-life), i.p. 10 mg/kg, male SD rats) was 9 ± 3 min. The half-life ([7]; 10 mg/kg, K10-HL (elimination half-life), i.p. 10 mg/kg, male SD rats) was 35.4 ± 13.8 min, the AUC(0-inf) ([7]; 20 mg/kg) was 111000 ng·h/mL and the Cmax ([7]; 20 mg/kg) was 85600 ng/mL. The Tmax ([7]; 20 mg/kg) was 22.8 min, the half-life ([7]; 20 mg/kg, K01-HL (absorption half-life), i.p. 20 mg/kg, male SD rats) was 8.4 ± 1.8 min and the half-life ([7]; 20 mg/kg, K10-HL (elimination half-life), i.p. 20 mg/kg, male SD rats) was 33.6 ± 5.4 min. The AUC [8, 10] was 9980 ± 523 ng·h/mL, the AUC(0-inf) [8, 10] was 8820 ± 589 ng·h/mL and the Cmax [8, 10] was 7000 ± 216 ng/mL. The Tmax [8, 10] was 28.8 min, the bioavailability [8, 10] was 91.9 ± 6.14% and the half-life [8, 10] was 19.2 ± 1.2 min. The AUC(0-inf) [8, 11] was 9590 ± 1750 ng·h/mL, the Cmax [8, 11] was 42600 ng/mL and the MRT [8, 11] was 13.2 ± 1.2 min. The half-life [8, 11] was 9.6 ± 1.2 min, the “K01 (absorption constant)” value ([8]; i.p. 5 mg/kg, female SD rats) was 2.14 ± 0.12 h⁻¹ and the “K10 (elimination constant)” value ([8]; i.p. 5 mg/kg, female SD rats) was 2.19 ± 0.18 h⁻¹. The “K10-HL (elimination half-life)” value ([8]; i.p. 5 mg/kg, female SD rats) was 0.32 ± 0.02 h, the “K10 (elimination constant)” value ([8]; i.v. 5 mg/kg, female SD rats) was 4.50 ± 0.48 h⁻¹ and the “gender difference in PK parameters and bioavailability” value ([8]; male vs female SD rats, 5 mg/kg i.p. and i.v., 5 mg/kg) was “no gender differences; also recorded: no significant difference”. For the same substance, the “K01 (absorption constant)” value ([9]; i.p. 5 mg/kg) was 2.90 ± 0.89 h⁻¹, the “K10 (elimination constant)” value ([9]; i.p. 5 mg/kg) was 1.63 ± 0.33 h⁻¹ and the “K10 (elimination constant)” value ([9]; i.v. 5 mg/kg) was 3.79 ± 2.19 h⁻¹. It also gave an AUC(0-inf) [9, 12] of 8100 ± 1040 ng·h/mL, a Cmax [9, 12] of 6050 ± 348 ng/mL and a Tmax [9, 12] of 28.8 min. For the same substance, the bioavailability [9, 12] was 95 ± 12.2%, the half-life ([9]; male, SD, rat, plasma, ip, 5 mg/kg, K01-HL (absorption half-life), i.p. 5 mg/kg) was 15.6 ± 5.4 min and the half-life ([9]; male, SD, rat, plasma, ip, 5 mg/kg, K10-HL (elimination half-life), i.p. 5 mg/kg) was 26.4 ± 6 min. It also gave an AUC(0-inf) [9, 13] of 8530 ± 1600 ng·h/mL, a Cmax [9, 13] of 30200 ± 14600 ng/mL and an MRT [9, 13] of 21.6 ± 15.6 min. For the same substance, the half-life ([9]; male, SD, rat, plasma, iv, 5 mg/kg, K10-HL (elimination half-life), i.v. 5 mg/kg) was 15 ± 10.8 min, the AUC(0-inf) [9, 14] was 6690 ± 1510 ng·h/mL and the Cmax [9, 14] was 4110 ± 888 ng/mL. For the same substance, the Tmax [9, 14] was 36 min, the bioavailability [9, 14] was 78.5 ± 17.7% and the half-life ([9]; male, SD, rat, plasma, sc, 5 mg/kg, K01-HL (absorption half-life), s.c. 5 mg/kg) was 24.6 ± 0.6 min. The half-life ([9]; male, SD, rat, plasma, sc, 5 mg/kg, K10-HL (elimination half-life), s.c. 5 mg/kg) was 25.2 ± 0.24 min, the “K01 (absorption constant)” value ([9]; s.c. 5 mg/kg) was 1.68 ± 0.02 h⁻¹ and the “K10 (elimination constant)” value ([9]; s.c. 5 mg/kg) was 1.66 ± 0.01 h⁻¹.
